Test results as given in publication PMC5694347 (Clinical cancer research : an official journal of the …, 2015).

Assays:
[1] = system: patients with AML and myelodysplastic syndromes (MDS); settings: same dosing as schedule B (days 1, 4, 8, 11); cited from earlier work
[2] = system: relapsed and/or refractory lymphoma or MM; test: Antitumor activity: disease response; type: in vivo, human

In the case of `NS(=O)(=O)OC[C@@H]1C[C@@H](n2ccc3c(N[C@H]4CCc5ccccc54)ncnc32)C[C@@H]1O` [pevonedistat], the “MTD in AML/MDS patients” value [1] is listed as 83 mg/m^2, the “Duration of SD” value ([2]; 5 MM patients who received ≥5 cycles) is listed as 3.22–6.01 months and the “Duration of SD” value ([2]; 7 lymphoma patients who received ≥5 cycles) is listed as 3.25–9.53 months. The “Best response in MM patients” value ([2]; MM patients) was “best responses of only SD”.
